Read-outs that look alike come from different tables or passages of the source.
Assays:
[1] = system: Human Embryo Kidney (HEK) 293 cells; experiment: Hypothermia/rewarming injury of HEK cells, trypan blue viability count; assay type: cell-based; conditions: for viability at 0.01 µM / viability at 0.1 µM / viability at 1 µM / viability at 10 µM / viability at 100 µM / viability at 1000 µM: Homo sapiens, read-out: % cells that survived; for viability at 0.01 µM / viability at 0.1 µM / viability at 1 µM / viability at 10 µM / viability at 100 µM / viability at 1000 µM / % cells that survived: 24 h at 4° C., 24 h rewarming; for viability at 0.1 µM: 100 nM; for % cells that survived, Mean: mean over the tested concentrations
Procedure: Human Embryo Kidney (HEK) 293 cells were cultured in DMEM cell culture medium (Life Technologies, 41965-052) supplemented with fetal calf serum, penicillin and streptomycin. Cells were seeded at a density of 0.8-1.2E6 mL-1 in 25 cm2 polystyrene flasks, placed in a 37° C.
The compounds were dissolved in dimethyl sulfoxide (DMSO) to several concentrations. Before commencing experiments, this stock solution was dissolved in pre-warmed DMEM and further diluted to obtain a concentration range from 10 nM-1 mM. Cell culture medium was then replaced by these dilutions and cells were incubated in the presence of the compound for 1 hour. After incubation, lids were closed tightly and flasks were placed in a 4° C. room and cooled for 24 hours. After this cooling period, cells were placed back in the 37° C. incubator with lids closed and were allowed to rewarm for another 24 hours.
After this rewarming period, microscopic images were taken to assess cell morphology (Nikon D5100, Nikon Diaphot-TMD). Cell culture medium was collected and centrifuged (4 minutes, 2000 rpm). The supernatant was collected and pH was immediately measured to prevent equilibration of the pH by the carbonate buffer in the medium, while the pelleted cells were resuspended in 5 mL of PBS. Cells remaining in the flask were washed twice with phosphate buffered saline (PBS) while the washing product was discarded. Subsequently, the cells were trypsinized by addition of 0.5 mL of trypsine and pooled with the resuspended pellet. This cell suspension was then stained at a final concentration of 0.2% trypan blue (Sigma, T8154), followed by manual assessment of viability and cell number on a Bürker-Türk hemocytometer. To conclude the assay, cell culture medium glucose levels were measured (Roche Accutrend Plus) as an indication of metabolic activity. All of these steps were performed with care to prevent mechanical stress to influence or alter the viability of the cells after cooling.
The amount represents the % cells that survived. […] In the control, the same procedure was applied to two badges of HEK cells.

blood platelets = experiment: Cold storage of PRP blood platelets, aggregation of thrombocytes after storage; assay type: cell-based; parameters: key: − means that most of the thrombocytes were aggregated; a + indicates that a few cells were still viable but some cells aggregated; a ++ indicates that almost all cells were viable; conditions: 30 mM; PRP platelets stored at 4° C.; 264 hours
Procedure: PRP platelets were harvested and 2.1 ml was suspended in Poly Propylene tubes of 5 ml, closed with a stop.
Several compounds according to the invention were added to the blood platelets directly after preparing the PRP plasma and incubated during 10 minutes at 37° C. or 30 minutes at room temperature. The blood platelets with the compound were then stored at 4° C.
A control was stored under shaking conditions at room temperature. Another control was stored at 4° C. without the addition of a compound.
A sample was taken out of each tube after 264 hours after addition of the compound and tested as follows: • The color and coagulation properties were visually analysed. • The thrombocyte cells that survived were counted and it was evaluated whether the thrombocytes were aggregated. • It was evaluated if the thrombocytes still were able to function after stimulation by the addition of ADP or under influence of collagen in a 96 well plate. • The adhesion was evaluated, meaning the ability of the platelets to bind collagen in a 6 well plate preincubated with collagen. • Via an ELISA assay, it was evaluated whether thromboxane was secreted from the platelets. Thromboxane facilitates aggregation and is produced by activated blood platelets.
Table 3 provides an overview of the results of the addition of the compounds to the blood platelets and evaluates the aggregation of the thrombocytes after addition of the compound according to the invention and cooling until 4° C.

| Structure (SMILES) | viability at 0.01 µM ([1]; HEK293, 24 h, 10 nM) | viability at 0.1 µM ([1]; HEK293, 24 h) | viability at 1 µM ([1]; HEK293, 24 h) | viability at 10 µM ([1]; HEK293, 24 h, 10 μM) | viability at 100 µM ([1]; HEK293, 24 h) | viability at 1000 µM ([1]; HEK293, 24 h, 1 mM) | % cells that survived, Mean [1] | Aggregation of blood platelets after storage (blood platelets) | % cells that survived ([1]; 10 nM) | % cells that survived ([1]; 10 μM) | viability at 0.01 µM ([1]; HEK293, 10 nM) | viability at 0.1 µM ([1]; HEK293) | viability at 1 µM ([1]; HEK293) | viability at 10 µM ([1]; HEK293, 10 μM) | viability at 100 µM ([1]; HEK293) | viability at 1000 µM ([1]; HEK293, 1 mM) | % cells that survived ([1]; 1 mM) |
| --- | --- | --- | --- | --- | --- | --- | --- | --- | --- | --- | --- | --- | --- | --- | --- | --- | --- |
| Cc1c(C)c2c(c(C)c1O)CCC(C)(C(=O)N1CCC[C@H]1C(=O)O)O2 (mixture of isomers) [SUL - 143, (2S)-1-(6-hydroxy-2,5,7,8-tetramethylchroman-2-carbonyl)pyrrolidine-2-carboxylic acid] | 30.6% | 35% | 14.9% | 49.5% | 97.8% | 98.4% | 54% | + |  |  |  |  |  |  |  |  |  |
| Cc1c2c(c(C(C)C)c(O)c1C(C)C)CCC(C)(C(=O)N1CCN(CC(=O)O)CC1)O2 (stereo not shown) [SUL - 139, 2-(4-(6-hydroxy-5,7-diisopropyl-2,8-dimethylchroman-2-carbonyl)piperazin-1-yl)acetic acid] | 13.3% | 4.57% | 4.26% | 90% | 89.7% | 80.3% | 47% | + |  |  |  |  |  |  |  |  |  |
| Cc1c(C)c2c(c(C)c1O)CCC(C)(C(=O)N1CCNCC1)O2 (stereo not shown) [SUL - 121, (6-hydroxy-2,5,7,8-tetramethylchroman-2-yl)(piperazin-1-yl)methanone] | 87.3% | 89% | 94.8% | 88.9% | 92.7% | 0% | 75% | + |  |  |  |  |  |  |  |  |  |
| Cc1c(C)c2c(c(C)c1O)CC[C@@](C)(C(=O)N1CCN(CC(=O)O)CC1)O2 [SUL - 141, (S)-2-(4-(6-hydroxy-2,5,7,8-tetramethylchroman-2-carbonyl)piperazin-1-yl)acetic acid] | 58.5% | 96.2% | 0.75% | 99.4% | 96.8% | 99.1% | 75% | + |  |  |  |  |  |  |  |  |  |
| Cc1c(C)c2c(c(C)c1O)CCC(C)(C(=O)N1CCC[C@H]1C(=O)O)O2 (single isomer, unassigned) [SUL - 144] |  | 18.3% | 21.6% |  | 91% | 92.6% | 42% | + | 4.08% | 25.93% |  |  |  |  |  |  |  |
| CCCCNCC1(C)CCc2c(C)c(O)c(C)c(C)c2O1 (stereo not shown) [SUL - 117, 2-((butylamino)methyl)-2,5,7,8-tetramethylchroman-6-ol] | 0.72% | 89.3% | 93.6% | 84.8% | 90.1% | 0% | 60% | + |  |  |  |  |  |  |  |  |  |
| Cc1c(C)c2c(c(C)c1O)CCC(C)(C(=O)NCCBr)O2 (stereo not shown) [SUL - 114, N-(2-bromoethyl)-6-hydroxy-2,5,7,8-tetramethylchroman-2-carboxamide] |  |  |  |  |  |  | 71% |  |  |  | 81.1% | 87.2% | 89.9% | 87.7% | 77.9% | 0% |  |
| Cc1c(C)c2c(c(C)c1O)CCC(C)(CN1CCCCC1)O2 (stereo not shown) [SUL - 130, 2,5,7,8-tetramethyl-2-(piperidin-1-ylmethyl)chroman-6-ol] | 0% | 12.7% | 85.7% | 89.6% | 86.5% | 1.49% | 46% |  |  |  |  |  |  |  |  |  |  |
| Cc1c(C)c2c(c(C)c1O)CCC(C)(C(N)=O)O2 (stereo not shown) [SUL - 89, 6-hydroxy-2,5,7,8-tetramethylchroman-2-carboxamide] |  | 34.9% | 88.6% | 91.6% | 87.6% |  | 76% |  |  |  |  |  |  |  |  |  |  |
| Cc1c(C)c2c(c(C)c1O)CCC(C)(C(=O)N[C@H](CO)c1ccccc1)O2 (stereo partly drawn) [SUL - 98, 6-hydroxy-N-((S)-2-hydroxy-1-phenylethyl)-2,5,7,8-tetramethylchroman-2-carboxamide] |  | 91% | 97.8% | 97.5% | 88.5% | 1.02% | 75% |  |  |  |  |  |  |  |  |  |  |
| Cc1c(C)c2c(c(C)c1O)CCC(C)(C(=O)NCCC#N)O2 (stereo not shown) [SUL - 123, N-(2-cyanoethyl)-6-hydroxy-2,5,7,8-tetramethylchroman-2-carboxamide] | 68.4% | 90.5% | 83.2% | 88.4% | 88.2% | 0.75% | 70% |  |  |  |  |  |  |  |  |  |  |
| Cc1c(C)c2c(c(C)c1O)CCC(C)(C(=O)N1CCN(CCOCCO)CC1)O2 (stereo not shown) [SUL - 122, (6-hydroxy-2,5,7,8-tetramethylchroman-2-yl)(4-(2-(2-hydroxyethoxy)ethyl)piperazin-1-yl)methanone] | 5.15% | 22.5% | 85.6% | 85.2% | 88.5% | 55.6% | 57% |  |  |  |  |  |  |  |  |  |  |
| Cc1c2c(c(C(C)C)c(O)c1C(C)C)CCC(C)(C(=O)N1CCNCC1)O2 (stereo not shown) [SUL - 137, (6-hydroxy-5,7-diisopropyl-2,8-dimethylchroman-2-yl)(piperazin-1-yl)methanone] | 78.2% | 86.1% | 93.9% | 90.9% | 78.7% | 0.53% | 71% |  |  |  |  |  |  |  |  |  |  |
| Cc1c(C)c2c(c(C)c1O)CCC(C)(C(=O)N[C@@H](C(N)=O)c1ccccc1)O2 (stereo partly drawn) [SUL - 111, N-((R)-2-amino-2-oxo-1-phenylethyl)-6-hydroxy-2,5,7,8-tetramethylchroman-2-carboxamide] | 90.9% | 81.6% | 97.3% | 93.7% | 94.3% | 79.2% | 90% |  |  |  |  |  |  |  |  |  |  |
| Cc1c(C)c2c(c(C)c1O)CCC(C)(CN1CCC[C@H]1CO)O2 (stereo partly drawn) [SUL - 128, 2-(((S)-2-(hydroxymethyl)pyrrolidin-1-yl)methyl)-2,5,7,8-tetramethylchroman-6-ol] |  | 100% | 100% | 100% | 99.4% |  | 71% |  | 28.21% |  |  |  |  |  |  |  | 0.00% |
| Cc1c(C)c2c(c(C)c1O)CCC(C)(C(=O)Nc1cccc([N+](=O)[O-])c1)O2 (stereo not shown) [SUL - 104, 6-hydroxy-2,5,7,8-tetramethyl-N-(3-nitrophenyl)chroman-2-carboxamide] | 99.3% | 99.5% | 97.5% | 98.9% | 40.9% | 52.2% | 81% |  |  |  |  |  |  |  |  |  |  |
| Cc1c(C)c2c(c(C)c1O)CCC(C)(C(=O)NO)O2 (stereo not shown) [SUL - 90, N,6-dihydroxy-2,5,7,8-tetramethylchroman-2-carboxamide] |  | 8.67% | 91.3% | 90.2% | 77.9% | 20.4% | 58% |  |  |  |  |  |  |  |  |  |  |
| Cc1c(C)c2c(c(C)c1O)CCC(C)(C(=O)NC(C)C)O2 (stereo not shown) [SUL - 92, 6-hydroxy-N-isopropyl-2,5,7,8-tetramethylchroman-2-carboxamide] |  | 3.13% | 64.6% | 87.1% | 86.5% | 1.55% | 49% |  |  |  |  |  |  |  |  |  |  |
| Cc1c(C)c2c(c(C)c1O)CCC(C)(C)O2 [SUL - 83, 2,2,5,7,8-pentamethylchroman-6-ol] |  | 0% | 79.4% | 70.1% | 55.7% | 1.11% | 41% |  |  |  |  |  |  |  |  |  |  |

Source: patent US11006626B2, “Compounds for protection of cells” (Sulfateq B.V., priority 2012, dated 2021)
